Holding throughout (test): MIC, two-fold plate dilution method
What all share (type): cell-based

One assay deals with E. coli 26. The note with it: E. coli 26, Gram-negative; Muener-Hinton medium. The text has this: (§1) . The pharmaceutically acceptable salts or hydrates thereof have the same antibacterial activity.
(§2) Two-fold plate dilution method is used for determination of activity, with Muener-Hinton medium (DIFCO) as the culture medium and clinically isolated pathogenic strain, quality control strain and standard strain (provided by National Institute for the Control of Pharmaceutical and Biological Products) as test strains.

A further assay concerns K. pneumoniae 7. The settings on record: K. pneumoniae 7, Gram-negative; Muener-Hinton medium.
From the text: as §1, §2

In a further assay the test system is S. pneumoniae 98. Details: unit not given here. The settings on record: S. pneumoniae 98, Gram-positive; Muener-Hinton medium.
From the text: as §1, §2

Another assay relates to E. coli ATTC 25922. Details: unit not given here. The settings on record: E. coli ATTC 25922, Gram-negative; Muener-Hinton medium.
From the text: as §1, §2

The subject of another assay is K. pneumoniae 14. Also noted: unit not given here. The note with it: K. pneumoniae 14, Gram-negative; Muener-Hinton medium.
From the text: as §1, §2

Another assay has as its system Enterococcus 755. The settings on record: Enterococcus 755, Gram-positive; Muener-Hinton medium.
From the text: as §1, §2

In a further assay the test system is S. pneumoniae 70. Also noted: unit not given here. The note with it: S. pneumoniae 70, Gram-positive; Muener-Hinton medium.
From the text: as §1, §2

The test system of a further assay is S. aureus ATTC 25923. Also noted: unit not given here. The settings on record: S. aureus ATTC 25923, Gram-positive; Muener-Hinton medium.
From the text: as §2

For the compound `Cl.Nc1c(F)c(N2C[C@H]3CCCN[C@H]3C2)c(OC(F)F)c2c1c(=O)c(C(=O)O)cn2C1CC1` [Embodiment 18, 5-Amino-1-cyclopropyl-8-difluoromethoxyl-7-[(1R,6R)-2,8-diazabicyclo[4,3,0]nonane-8-yl]-6-fluoro-1,4-dihydro-4-oxoquinoline-3-carboxylic acid hydrochloride], the MIC with E. coli 26 is on record as 0.01 g/mL; in the assay on K. pneumoniae 7 it was 0.01 g/mL; in the assay with S. pneumoniae 98, 0.12; in the assay on E. coli ATTC 25922, 0.01; in the assay with K. pneumoniae 14, 0.01.
Consider `Nc1c(F)c(N2C[C@@H]3CCCN[C@@H]3C2)c(OC(F)F)c2c1c(=O)c(C(=O)O)cn2C1CC1` (relative stereo) [Embodiment 21, 5-Amino-1-cyclopropyl-8-difluoromethoxyl-7-(cis-2,8-diazabicyclo[4,3,0]nonane-8-yl)-6-fluoro-1,4-dihydro-4-oxoquinoline-3-carboxylic acid], for which the MIC in the assay with E. coli 26 was below 0.00 g/mL.
Consider `Cl.Nc1c(F)c(N2C[C@@H]3CCCN[C@@H]3C2)c(OC(F)F)c2c1c(=O)c(C(=O)O)cn2C1CC1` [Embodiment 17, 5-amino-1-cyclopropyl-8-difluoromethoxyl-7-[(1S,6S)-2,8-diazabicyclo[4,3,0]nonane-8-yl]-6-fluoro-1,4-dihydro-4-oxoquinoline-3-carboxylic acid hydrochloride], for which the MIC is recorded as 0.01 g/mL against E. coli 26; 0.01 g/mL in the assay with K. pneumoniae 7; 0.01 g/mL against Enterococcus 755; 0.01 in the assay with S. pneumoniae 98; 0.01 against S. pneumoniae 70; 0.01 against E. coli ATTC 25922. Also, the MIC against K. pneumoniae 14 is given as 0.01.
Consider `Cl.O=C(O)c1cn(C2CC2)c2c(OC(F)F)c(N3C[C@@H]4CCCN[C@@H]4C3)c(F)cc2c1=O` [Embodiment 13, 1-cyclopropyl-8-difluoromethoxyl-7-[(1S,6S)-2,8-diazabicyclo[4,3,0]nonane-8-yl]-6-fluoro-1,4-dihydro-4-oxoquinoline-3-carboxylic acid hydrochloride], for which the MIC with E. coli 26 was found to be 0.01 g/mL; against K. pneumoniae 7 it was 0.01 g/mL; against S. pneumoniae 98, 0.01; with S. pneumoniae 70, 0.12; in the assay on E. coli ATTC 25922 it was 0.01; against K. pneumoniae 14, 0.01.
Consider `Cl.O=C(O)c1cn(C2CC2)c2c(OC(F)F)c(N3C[C@@H]4CCCN[C@@H]4C3)c(F)cc2c1=O` (racemic) [Embodiment 15, 1-Cyclopropyl-8-difluoromethoxyl-7-[cis-2,8-diazabicyclo[4,3,0]nonane-8-yl]-6-fluoro-1,4-dihydro-4-oxoquinoline-3-carboxylic acid hydrochloride], for which the MIC in the assay with S. pneumoniae 98 and in the assay with S. aureus ATTC 25923 was 0.12 in each case.
As for `Cl.O=C(O)c1cn(C2CC2)c2c(OC(F)F)c(N3C[C@H]4CCCN[C@H]4C3)c(F)cc2c1=O` [Embodiment 14, 1-cyclopropyl-8-difluoromethoxyl-7-[(1R,6R)-2,8-diazabicyclo[4,3,0]nonane-8-yl]-6-fluoro-1,4-dihydro-4-oxoquinoline-3-carboxylic acid hydrochloride], the MIC against S. pneumoniae 98 and against E. coli ATTC 25922 was 0.01 throughout.
